US20250340516A1, “Isoquinolinones as Modulators of POLRMT” (Pretzel Therapeutics, Inc., priority 2024, published 2025)

biological target: POLRMT (Homo sapiens (Human), UniProt O00411); assay: homogeneous TR-FRET assay of POLRMT inhibition (mitochondrial transcription, 407 bp RNA product); format: biochemical; conditions: 7.5 nM POLRMT, 15 nM TFB2M, 30 nM TFAM, 0.5 nM DNA template, 500 μM NTPs, 37° C., 60 minutes, * = aggregation of data sets, read-out: IC50 values for isoquinolinone compounds
Protocol: The inhibitory activity of the compounds of the present invention against POLRMT were determined by assays based on Bergbrede, T., et al., “An adaptable high-throughput technology enabling the identification of specific transcription modulators,” SLAC Discov., 22, 378-386 (2017).
The ability of some compounds of the present invention to inhibit POLRMT were determined in a homogeneous TR-FRET Assay using high-throughput screening in a 384-well plate format. This method is used to monitor the activity of mitochondrial transcription through measurement of its product, a 407 bp long RNA transcript. Detection of the product is facilitated by hybridization of two DNA-oligonucleotide probes to specific and adjacent sequences within the RNA product sequence. Upon annealing of the probes, two fluorophores are coupled directly to an acceptor nucleotide probe (ATTO647, 5′), or introduced via a coupled streptavidin with a biotinylated donor nucleotide probe (Europium cryptate) that is brought into sufficient proximity to serve as a fluorescence-donor-acceptor pair. Thus, a FRET signal at 665 nm is generated upon excitation at 340 nm.
Proteins used as transcription factors (POLRMT: NP_005026.3, TFAM: NP_003192.1, TFB2M: NP_071761.1) are diluted from their stocks to working concentrations of 1 μM, 20 μM and 4 μM respectively, in a dilution buffer containing 20 mM Tris-HCl (pH 8.0), 200 mM NaCl, 10% (v/v) glycerol, 1 mM Dithiothreitol (DTT), 0.5 mM EDTA.
DNA template is a pUC18 plasmid with the mitochondrial light strand promotor sequence (1-477) cloned between HindIII and BamHI sites. The DNA template is restriction linearized proximal to the promotor 3′-end (pUC-LSP).
The reaction mixture (10 uL) containing 7.5 nM POLRMT, 15 nM of TFB2M, 30 nM of TFAM, 0.5 nM of DNA template and 500 μM nucleotide triphosphate mix (NTPs) in a reaction buffer (containing 10 mM Tris-HCl (pH 7.5), 10 mM MgCl2, 40 mM NaCl, 10 mM DTT, 0.005% (w/v) Tween-20, 160 units/ml Rnase inhibitor and 0.1 mg/mL BSA) are dispensed to compounds in microplates, using a Thermo Multidrop® dispenser, and incubated at 37° C. in a VWR INCU-Line incubator for 60 minutes after mixing. No nucleotide triphosphate mix is added to negative control samples. Microplates with compounds to be tested in the assay are prepared from 10 mM compound stocks in 100% DMSO, equal amounts of DMSO without any compound are added to positive control and negative control samples.
During the incubation, a mix of the detection reagents is prepared in a buffer such that the enzymatic reaction is terminated due to chelating of Mg-ions and increased ionic strength, containing 50 mM Tris-HCl (pH 7.5), 700 mM NaCl, 20 mM EDTA, and 0.01% (w/v) Tween-20. Europium-streptavidin is pre-incubated with a 200-fold molar excess of a random sequence oligonucleotide to block unspecific binding of oligo, for two hours at ambient temperature in the dark. Afterwards, the blocked Europium-streptavidin is kept on ice until use.
At the end of the enzymatic reaction time, 5 μL detection oligo mix in the detection buffer is added, and assay plates are mixed and kept at ambient temperature for one hour, protected from light. The concentration of the Acceptor nucleotide oligo (e.g., ATTO647N-5′-[…]-3′ (SEQ ID NO: 1)) and Donor nucleotide oligo (e.g., bio-5′-AACACATCTCT(-bio)GCCAAACCCCA-bio-3′ (SEQ ID NO: 2)) in each assay well is 1 nM, and 3 nM, respectively.
After incubation with oligo mix, 5 μL of pre-blocked Europium-streptavidin reagent is dispensed to each assay well, assay plates are again mixed and kept at ambient temperature for one hour, protected from light.
The generated signal is measured with BMG Pherastar microtiter plate reader with a TRF light unit, using excitation at 340 nm, an integration time of 200 μs, and a delay time of 100 μs, before detection at 620 nm and 665 nm. The ratio of donor- and acceptor-fluorescence is used as a measure of the generated transcript product (i.e. enzymatic activity).

Sequence of POLRMT (O00411 42-1230): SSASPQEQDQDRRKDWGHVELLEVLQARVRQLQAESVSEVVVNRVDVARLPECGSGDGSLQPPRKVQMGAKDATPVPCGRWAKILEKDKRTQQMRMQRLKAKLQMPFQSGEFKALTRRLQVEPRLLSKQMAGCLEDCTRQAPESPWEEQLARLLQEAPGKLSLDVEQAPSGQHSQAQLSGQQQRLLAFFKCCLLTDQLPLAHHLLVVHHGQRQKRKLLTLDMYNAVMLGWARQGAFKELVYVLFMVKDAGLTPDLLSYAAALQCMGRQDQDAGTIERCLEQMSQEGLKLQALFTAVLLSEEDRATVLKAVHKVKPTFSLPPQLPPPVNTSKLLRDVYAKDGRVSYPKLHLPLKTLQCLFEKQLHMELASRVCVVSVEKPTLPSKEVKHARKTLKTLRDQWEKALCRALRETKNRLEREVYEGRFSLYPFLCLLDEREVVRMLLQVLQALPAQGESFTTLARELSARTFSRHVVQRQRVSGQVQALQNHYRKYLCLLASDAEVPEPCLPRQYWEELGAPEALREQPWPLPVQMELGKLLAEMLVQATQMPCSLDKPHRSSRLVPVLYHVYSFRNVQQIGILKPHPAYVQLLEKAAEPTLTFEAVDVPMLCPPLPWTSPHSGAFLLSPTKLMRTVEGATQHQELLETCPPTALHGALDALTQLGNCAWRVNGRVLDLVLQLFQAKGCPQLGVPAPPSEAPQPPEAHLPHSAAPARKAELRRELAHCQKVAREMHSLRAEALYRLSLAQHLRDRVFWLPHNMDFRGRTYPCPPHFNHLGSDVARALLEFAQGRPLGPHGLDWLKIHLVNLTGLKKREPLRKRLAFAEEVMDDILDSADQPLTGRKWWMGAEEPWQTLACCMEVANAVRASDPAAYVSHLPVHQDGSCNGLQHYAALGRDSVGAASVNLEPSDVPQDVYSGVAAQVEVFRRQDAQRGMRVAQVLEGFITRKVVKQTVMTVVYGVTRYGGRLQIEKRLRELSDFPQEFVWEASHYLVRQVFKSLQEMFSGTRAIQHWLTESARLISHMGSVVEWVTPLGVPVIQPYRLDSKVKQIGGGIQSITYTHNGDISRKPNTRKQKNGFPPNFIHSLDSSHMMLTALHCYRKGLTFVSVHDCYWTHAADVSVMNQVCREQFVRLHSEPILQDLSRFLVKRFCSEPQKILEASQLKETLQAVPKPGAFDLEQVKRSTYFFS

Compound	IC50
Cc1ccccc1-c1c[nH]c(=O)c2cc(O[C@@H](C)C(=O)N[C@H](C)C(N)=O)ccc12 [Example 24, (S)-N-((R)-1-amino-1-oxopropan-2-yl)-2-((1-oxo-4-(o-tolyl)-1,2-dihydroisoquinolin-7-yl)oxy)propanamide]	37000 nM
C[C@@H](Oc1ccc2c(-c3ccc(F)cc3Cl)c[nH]c(=O)c2c1)C(=O)N1CCC(C)(C(=O)O)CC1 [Example 14, (R)-1-(2-((4-(2-chloro-4-fluorophenyl)-1-oxo-1,2-dihydroisoquinolin-7-yl)oxy)propanoyl)-4-methylpiperidine-4-carboxylic acid]	100 nM
Cc1ccccc1-c1c[nH]c(=O)c2cc(O[C@H](C)C(=O)N3CC[C@H](N(C)C)C3)ccc12 [Example 65, 7-(((R)-1-((S)-3-(dimethylamino)pyrrolidin-1-yl)-1-oxopropan-2-yl)oxy)-4-(o-tolyl)isoquinolin-1(2H)-one]	100 nM
CCOC(=O)CN(C)c1ccc2c(-c3ccccc3C)c[nH]c(=O)c2c1 [Example 3, ethyl N-methyl-N-(1-oxo-4-(o-tolyl)-1,2-dihydroisoquinolin-7-yl)glycinate]	300 nM
COCCN1C2CCC1CN(C(=O)[C@@H](C)Oc1ccc3c(-c4ccccc4C)c[nH]c(=O)c3c1)C2 [Example 27, 7-(((2R)-1-(8-(2-methoxyethyl)-3,8-diazabicyclo[3.2.1]octan-3-yl)-1-oxopropan-2-yl)oxy)-4-(o-tolyl)isoquinolin-1(2H)-one]	100 nM
C[C@@H](Oc1ccc2c(-c3ccc(F)cc3Cl)c[nH]c(=O)c2c1)C(=O)N1CCCC(C2(C(=O)O)CC2)C1 (single isomer, unassigned) [Example 36]	80 nM
C[C@@H](Oc1ccc2c(-c3ccc(F)cc3Cl)c[nH]c(=O)c2c1)C(=O)N1CCCC(C2(C(=O)O)CC2)C1 (single isomer, unassigned) [Example 37]	50 nM
C[C@@H](C(=O)N1CCC[C@H](C(=O)O)C1)N(C)c1ccc2c(-c3ccc(F)cc3Cl)c[nH]c(=O)c2c1 (single isomer, unassigned) [Example 4]	100 nM
Cc1cccc(CO)c1-c1c[nH]c(=O)c2cc(OCC(F)F)ccc12 [Example 72, 7-(2,2-difluoroethoxy)-4-(2-(hydroxymethyl)-6-methylphenyl)isoquinolin-1(2H)-one]	100 nM
Cc1ccccc1-c1c[nH]c(=O)c2cc(O[C@H](C)C(=O)N[C@@H](C)C(N)=O)ccc12 [Example 73, (R)-N-((S)-1-amino-1-oxopropan-2-yl)-2-((1-oxo-4-(o-tolyl)-1,2-dihydroisoquinolin-7-yl)oxy)propanamide]	100 nM
CC(=O)N1CCN(C[C@H](C)Oc2ccc3c(-c4ccccc4C)c[nH]c(=O)c3c2)CC1 [Example 55, (S)-7-((1-(4-acetylpiperazin-1-yl)propan-2-yl)oxy)-4-(o-tolyl)isoquinolin-1(2H)-one]	37000 nM
Cc1ccccc1-c1c[nH]c(=O)c2cc(O[C@H](C)C(=O)N3CCCC(C4(C(=O)O)CC4)C3)ccc12 (stereo partly drawn) [Example 34, 1-(1-((R)-2-((1-oxo-4-(o-tolyl)-1,2-dihydroisoquinolin-7-yl)oxy)propanoyl)piperidin-3-yl)cyclopropane-1-carboxylic acid]	30 nM
N#CCOc1ccc2c(-c3ccccc3CCO)c[nH]c(=O)c2c1 [Example 42, 2-((4-(2-(2-hydroxyethyl)phenyl)-1-oxo-1,2-dihydroisoquinolin-7-yl)oxy)acetonitrile]	300 nM
Cc1ccccc1-c1c[nH]c(=O)c2cc(O[C@H](C)C(=O)N(C)CC(=O)O)ccc12 [Example 78, (R)-N-methyl-N-(2-((1-oxo-4-(o-tolyl)-1,2-dihydroisoquinolin-7-yl)oxy)propanoyl)glycine]	1000 nM
Cc1ccccc1-c1c[nH]c(=O)c2cc(O[C@H](C)C(=O)NCC(N)=O)ccc12 [Example 60, (R)-N-(2-amino-2-oxoethyl)-2-((1-oxo-4-(o-tolyl)-1,2-dihydroisoquinolin-7-yl)oxy)propanamide]	100 nM
COCCc1ccccc1-c1c[nH]c(=O)c2cc(OCC#N)ccc12 [Example 63, 2-((4-(2-(2-methoxyethyl)phenyl)-1-oxo-1,2-dihydroisoquinolin-7-yl)oxy)acetonitrile]	> 100000 nM
